According to US20150110845A1, “ANTIMICROBIAL POLYNUCLEOTIDE-TEMPLATED METAL NANOCLUSTER” (priority 2013, published 2015):
In brackets after ≈: the same amount, converted by molar mass.

Columns and labels:
[1] = tested on: multidrug-resistant bacteria P. aeruginosa; experiment: Inhibition of P. aeruginosa growth in solution culture; format: cell-based, Pseudomonas aeruginosa; details: overnight at 37° C., shaking 250 rpm; AgNO3 180 μM
Description: Other than DNA-based surface chemistry, the size-dependent controlled-release of Ag^+ from the DNA-templated AgNCs (sub-2nm) were also compared with the citrate-capped silver nanoparticles (AgNPs, 15 nm) and AgNO3 (free flow of Ag^+) against bacterial growth under the same experimental conditions. AgNPs were synthesized based on the Turkevich method whereby an aqueous solution of trisodium citrate was brought to boil, followed by addition of AgNO3 aq solution (310 μM). The reaction was then boiled till a yellow solution was obtained. For the AgNO3, 180 μM of AgNO3 was used for this example.

human A549 cells = experiment: WST-1 cytotoxicity assay; format: cell-based; details: compared at 44 μM, 4 hours at 37° C.
Description: The cytotoxicity of the silver-containing species were tested against human A549 cells (from the lungs) using the WST-1 Assay (manufactured by Roche). The silver-bearing species were diluted to different extents and allowed to incubate with the human cells at 37° C. for 4 hours. In the presence of dead cells, the enzymatic assay gave a pink coloured solution (as shown by the box in FIG. 4A), while the living cells gave a brown solution (cells that are outside the box region in FIG. 4A).
The percentage of human dead cells can be quantified spectroscopically by measuring the optical density of the solution at a wavelength of 440 nm. To examine the antimicrobial potency and cytotoxicity of silver in different formulations (AgNPs, DNA-templated AgNCs and AgNO3), the percentage of bacteria cells inhibited (y-axis representing the antibacterial potency) was plotted against the percentage of human A549 cells killed (x-axis representing the eukaryotic cytotoxicity) in FIG. 4B. Here, the relative percentages of human A549 cells killed were compared at a concentration of 44 μM for all silver-containing species.

B. cenocepacia = details: J. Antimicrob. Chemother., 2002, 50, 265-269; cited from earlier work
P. aeruginosa = details: J. Antimicrob. Chemother., 1999, 43, 345-349; cited from earlier work

| Structure (SMILES) | P. aeruginosa growth inhibited [1] | cytotoxicity to human A549 cells (human A549 cells) | MIC50 (B. cenocepacia) [µM] | MIC50 (P. aeruginosa) [µM] |
| --- | --- | --- | --- | --- |
| O=[N+]([O-])[O-].[Ag+] [AgNO3] | up to 97% | high toxicity |  |  |
| O=C(O)c1cn(C2CC2)c2cc(N3CCNCC3)c(F)cc2c1=O [ciprofloxacin] |  |  | 0.36 (≈ 0.119 µg/mL) | 0.27 (≈ 0.0895 µg/mL) |
